In article PMC4436593, “Endoplasmic reticulum stress-independent activation of unfolded protein response kinases by a small molecule ATP-mimic” (eLife, 2015):
pEC50, pIC50: −log10 of the molar value. Values joined by “and” are separate entries in the source; they are usually repeats but may differ in a detail not shown here. Equal entries are not always repeated.

How the values were obtained:
HEK293T cells = assay: HEK293T cell viability (CellTiter-Blue, 24 hr); format: cell-based; settings: 24 hr
Protocol: HEK293T cells were grown in DMEM (Sigma) complete media containing 10% FBS, 10 units/ml penicillin (Invitrogen), and 10 μg/ml streptomycin (Invitrogen). Cells were plated at a density of 30,000 cells per well in 96-well black plates with clear flat bottoms (Corning, Sigma-Aldrich) 24 hr before the experiment. A 12-point semi-logarithmic dilution series of compounds was made starting at 30 μM not to exceed 0.1% DMSO after final dilution into the growth media. Viability assays were conducted over the course of 24 hr. Cell viability was determined using CellTiter-Blue (Promega) following the manufacturer's instructions. […] Experiments were done in triplicate, and mean values were computed for each data point.

[1] = target: T1, GST-PERK kinase domain (580–1077 aa) (Mus musculus, UniProt Q9Z2B5); assay: In vitro GST-PERK kinase assay (eIF2α phosphorylation with γ-[32P]-ATP)
T1 sequence (Q9Z2B5 580-1077): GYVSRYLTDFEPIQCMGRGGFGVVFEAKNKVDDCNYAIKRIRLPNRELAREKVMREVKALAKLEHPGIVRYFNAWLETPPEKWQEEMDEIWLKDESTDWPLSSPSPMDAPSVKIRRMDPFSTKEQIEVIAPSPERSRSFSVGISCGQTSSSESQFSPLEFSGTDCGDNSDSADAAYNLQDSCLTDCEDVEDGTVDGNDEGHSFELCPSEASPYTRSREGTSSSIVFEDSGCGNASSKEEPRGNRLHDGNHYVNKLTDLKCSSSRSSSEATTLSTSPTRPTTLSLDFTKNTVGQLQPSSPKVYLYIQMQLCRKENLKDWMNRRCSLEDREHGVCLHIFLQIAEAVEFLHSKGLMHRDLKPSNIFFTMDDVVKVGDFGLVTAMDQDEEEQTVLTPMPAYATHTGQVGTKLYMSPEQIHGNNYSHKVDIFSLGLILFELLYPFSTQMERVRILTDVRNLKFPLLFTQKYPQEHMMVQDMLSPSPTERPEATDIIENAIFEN

[2] = tested on: mouse embryonic fibroblast (MEFs) cells; assay: XBP1 mRNA splicing, PERK shift and eIF2α phosphorylation in WT, Ire1−/− and Perk−/− MEFs; format: cell-based; settings: IPA 1 µM, 4 hr
From the text: PERK activation by IPA could be due to direct binding of IPA to PERK, or it could be caused by indirect activation of PERK by IRE1. If the latter were true, IPA should not trigger PERK activation in the absence of IRE1. To test this notion, we treated mouse embryonic fibroblasts (MEFs) derived from Ire1α^−/− and Perk^−/− knock-out mice with IPA and monitored XBP1 mRNA splicing, and PERK and eIF2α phosphorylation.
(§1) Cells were lysed and total RNA was collected (Total RNA Kit 1, EZ-RNA, EZNA [USA]). PolyA^+ mRNA was reverse transcribed with M-MLV (Invitrogen), and the resulting cDNA was used as a template for PCR amplification across the fragment of XBP1 cDNA containing the intron. Primers used to amplify human XBP1: 5′-[…]-3′ and 5′-[…]-3′. To amplify murine XBP1: 5′-[…]-3′ and 5′-[…]-3′. PCR conditions were as follows: 95°C for 5 min, 95°C for 1 min, 58°C for 30 s, 72°C for 30 s, and 72°C for 5 min, with 20 cycles of amplification. PCR products were resolved on a 2.5% agarose tris-acetate EDTA (TAE) gel. As previously reported, a hybrid amplicon species consisting of unspliced Xbp-1 annealed to spliced Xbp-1 can also be produced through this PCR reaction and was visible as a slower migrating band above the unspliced amplicon. The same cDNA was used as template for PCR of DERLIN-3 and HERPUD1, both ATF6 targets, and GAPDH, which was used as loading control. Primers used included the following: DERLIN-3, 5′-[…]-3′ and 5′-[…]-3′; HERPUD1-1, 5′-[…]-3′ and 5′-[…]-3′; GAPDH, 5′-[…]-3′ and 5′-[…]-3′. PCR conditions were: 95°C × 5 min, 95°C × 1 min, 56°C × 30 s, 72°C for 30 s for 25 cycles, 72°C for 5 min at 4°C. PCR products were resolved on a 2% agarose TAE gel.
Cells were lysed in 50 mM Tris-HCl, 2% SDS, 10% glycerol, 0.01% bromophenol blue, pH 6.8 supplemented with phosphatase inhibitors (Sigma) and protease inhibitors (Roche). 30 μg to 50 μg of total protein was loaded on each lane of 8% or 10% SDS-PAGE gels. The separated proteins were then transferred onto nitrocellulose membranes for immunoblotting. The following antibodies and dilutions were used: anti-β-actin 1:10,000 (A5441, Sigma), anti-total PERK at 1:1000 (C33E10, Cell Signaling Technology), anti-phospho eIF2α at 1:1000 (3597S, Cell Signaling Technology), anti-total eIF2α at 1:1000 (L57A5, Cell Signaling Technology). After overnight incubation with primary antibody, membranes were washed in PBS with 0.05% Tween and incubated in HRP-coupled secondary antibody anti-rabbit (611–1302, Rockland) or anti-mouse (610–1302, Rockland) diluted at 1:5000 in wash buffer. Immunoreactive bands were detected by chemiluminescence.

IRE1α-KR43 = IRE1α-KR43 (Homo sapiens, UniProt O75460); assay: FRET-based RNA cleavage assay (fluorescent HP17 substrate) of IRE1α-KR43 RNase activity
[3] = tested on: ATF6 transcriptional targets HERPUD1 (HERP1) and DERLIN3 (DERL3); assay: ATF6 target mRNAs HERP1 and DERL3 by RT-PCR in HEK293T cells; format: cell-based; settings: IPA 1 μM and 4 μM, Tm
From the text: To assess the effects of IPA on the activity of the two other UPR branches, we first examined activation of ATF6. To this end, we monitored mRNA levels by RT-PCR for two ATF6-driven transcriptional target genes, HERP1 and DERL3, in HEK293T cells.
as §1, with “PCR conditions were: 95°C × 5 min, 95°C × 1 min, 56°C × 30 s, 72°C for 30 s for 25 cycles, 72°C for 5 min at 4°C. PCR products were resolved on a 2% agarose TAE gel.” left out

[4] = tested on: protein translation in HEK293T cells; assay: Metabolic labeling: [35S] methionine incorporation in HEK293T cells; format: cell-based; settings: IPA 1 μM
Protocol: HEK293T cells (500,000 cells/ml) were plated in 12-well flat bottom culture cluster dishes (Costar, Fisher Scientific) 24 hr before the experiment. IPA (1 μM), or a combination of IPA with GSK2606414 (TRC inc. […] Cells lysates were kept on ice for 30 min before high-speed centrifugation followed by denaturation at 95°C. The samples were resolved on an SDS-polyacrylamide gel, which were then stained with Coomassie blue to ascertain protein loading. […] The resulting autoradiograms were quantified using ImageQuant software (Molecular Dynamics).

IRE1α-KR43, sequence (O75460 465-977 limits assumed): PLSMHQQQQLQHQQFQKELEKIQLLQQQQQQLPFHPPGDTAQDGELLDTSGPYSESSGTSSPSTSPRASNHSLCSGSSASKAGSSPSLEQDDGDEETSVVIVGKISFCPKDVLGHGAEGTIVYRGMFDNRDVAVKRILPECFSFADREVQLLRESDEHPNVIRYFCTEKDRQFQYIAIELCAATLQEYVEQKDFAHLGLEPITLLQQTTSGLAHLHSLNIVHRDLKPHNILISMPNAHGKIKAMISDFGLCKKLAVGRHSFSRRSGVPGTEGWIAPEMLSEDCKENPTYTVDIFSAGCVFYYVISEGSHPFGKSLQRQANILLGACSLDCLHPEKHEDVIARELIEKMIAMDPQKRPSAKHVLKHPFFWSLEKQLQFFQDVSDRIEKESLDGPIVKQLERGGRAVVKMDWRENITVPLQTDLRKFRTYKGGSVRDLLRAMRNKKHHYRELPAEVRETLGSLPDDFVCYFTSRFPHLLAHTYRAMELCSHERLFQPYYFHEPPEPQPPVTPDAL

## CSc1ccc(NC(=O)Nc2ccc(Nc3nccc(Nc4cc(C5CC5)[nH]n4)n3)cc2)cc1 [IPA]
HEK293T cells; IPA + 1 μM GSK2606414
  LD50 cell viability in the presence of 1 μM GSK: 6.21 µM and 6.2 µM
HEK293T cells; IPA alone
  LD50 cell viability: 0.82 µM and 0.8 µM
[1]
  pIC50: 5.55
[2]; Ire1α−/− MEFs
  PERK phosphorylation and eIF2α phosphorylation in Ire1α−/− MEFs: pronounced PERK phosphorylation
  XBP1 mRNA splicing in Ire1α−/− MEFs: no IPA-induced XBP1 mRNA splicing
[2]; Perk−/− MEFs
  eIF2α phosphorylation in Perk−/− MEFs: only a trace amount of IPA-induced eIF2α phosphorylation
[2]; WT MEFs
  UPR branch activation in wild-type MEFs: induced both the PERK and IRE1 branches of the UPR
IRE1α-KR43
  pEC50: 6.44
[3]
  induction of ATF6 target genes HERP1 and DERL3: no detectable induction
[4]
  incorporation of [35S]-methionine into newly synthesized proteins: impaired
